# Activity calls are given as the source filed them.
# Tests used:
# [1] = target: T1, Sentrin-specific protease 8 (Homo sapiens, UniProt Q96LD8); assay type: functional;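 further: luminescence read-out of SENP8 inhibition, dose-response confirmation following an ultra-high-throughput screen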
# T1 sequence (Q96LD8 whole entry): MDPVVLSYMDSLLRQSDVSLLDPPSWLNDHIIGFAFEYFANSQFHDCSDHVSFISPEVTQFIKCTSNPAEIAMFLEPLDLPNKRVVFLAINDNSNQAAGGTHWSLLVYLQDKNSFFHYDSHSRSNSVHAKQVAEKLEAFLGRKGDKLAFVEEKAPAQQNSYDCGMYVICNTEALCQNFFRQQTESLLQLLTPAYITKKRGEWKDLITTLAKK
# [2] = target: T2, Sentrin-specific protease 7 (Homo sapiens, UniProt Q9BQF6); assay type: functional;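 further: Luminescence-based dose-response confirmation of ultra-high-throughput screening hits, measuring inhibition of SENP7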
# T2 sequence (Q9BQF6 whole entry): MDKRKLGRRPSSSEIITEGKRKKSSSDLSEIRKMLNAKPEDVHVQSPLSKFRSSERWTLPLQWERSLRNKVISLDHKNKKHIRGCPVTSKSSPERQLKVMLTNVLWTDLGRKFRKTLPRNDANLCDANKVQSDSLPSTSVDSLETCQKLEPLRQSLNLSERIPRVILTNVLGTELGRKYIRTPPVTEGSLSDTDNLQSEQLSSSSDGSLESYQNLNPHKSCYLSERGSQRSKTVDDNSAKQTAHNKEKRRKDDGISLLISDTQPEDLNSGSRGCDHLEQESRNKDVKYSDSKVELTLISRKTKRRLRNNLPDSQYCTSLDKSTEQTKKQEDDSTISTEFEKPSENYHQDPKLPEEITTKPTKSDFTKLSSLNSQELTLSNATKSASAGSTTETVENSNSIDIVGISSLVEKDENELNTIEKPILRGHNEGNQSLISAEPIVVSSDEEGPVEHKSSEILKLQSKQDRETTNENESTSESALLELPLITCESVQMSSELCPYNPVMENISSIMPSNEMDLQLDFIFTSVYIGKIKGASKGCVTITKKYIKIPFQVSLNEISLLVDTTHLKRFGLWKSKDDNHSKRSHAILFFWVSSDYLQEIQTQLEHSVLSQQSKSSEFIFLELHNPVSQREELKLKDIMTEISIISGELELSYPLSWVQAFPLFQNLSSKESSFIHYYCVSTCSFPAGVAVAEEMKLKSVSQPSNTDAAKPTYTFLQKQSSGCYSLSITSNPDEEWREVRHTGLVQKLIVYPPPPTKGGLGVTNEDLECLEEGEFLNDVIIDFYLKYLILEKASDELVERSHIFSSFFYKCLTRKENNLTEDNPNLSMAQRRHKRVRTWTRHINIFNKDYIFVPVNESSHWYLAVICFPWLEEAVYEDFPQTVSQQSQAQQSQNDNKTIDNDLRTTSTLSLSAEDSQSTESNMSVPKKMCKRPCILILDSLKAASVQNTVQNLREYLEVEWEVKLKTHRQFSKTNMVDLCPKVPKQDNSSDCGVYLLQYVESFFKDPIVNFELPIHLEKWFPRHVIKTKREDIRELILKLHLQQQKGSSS
# [3] = target: T3, Sentrin-specific protease 6 (Homo sapiens, UniProt Q9GZR1); assay type: functional;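 further: Luminescence-based dose-response confirmatory assay of SENP6 inhibition, following up an ultra-high-throughput screen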
# T3 sequence (Q9GZR1 whole entry): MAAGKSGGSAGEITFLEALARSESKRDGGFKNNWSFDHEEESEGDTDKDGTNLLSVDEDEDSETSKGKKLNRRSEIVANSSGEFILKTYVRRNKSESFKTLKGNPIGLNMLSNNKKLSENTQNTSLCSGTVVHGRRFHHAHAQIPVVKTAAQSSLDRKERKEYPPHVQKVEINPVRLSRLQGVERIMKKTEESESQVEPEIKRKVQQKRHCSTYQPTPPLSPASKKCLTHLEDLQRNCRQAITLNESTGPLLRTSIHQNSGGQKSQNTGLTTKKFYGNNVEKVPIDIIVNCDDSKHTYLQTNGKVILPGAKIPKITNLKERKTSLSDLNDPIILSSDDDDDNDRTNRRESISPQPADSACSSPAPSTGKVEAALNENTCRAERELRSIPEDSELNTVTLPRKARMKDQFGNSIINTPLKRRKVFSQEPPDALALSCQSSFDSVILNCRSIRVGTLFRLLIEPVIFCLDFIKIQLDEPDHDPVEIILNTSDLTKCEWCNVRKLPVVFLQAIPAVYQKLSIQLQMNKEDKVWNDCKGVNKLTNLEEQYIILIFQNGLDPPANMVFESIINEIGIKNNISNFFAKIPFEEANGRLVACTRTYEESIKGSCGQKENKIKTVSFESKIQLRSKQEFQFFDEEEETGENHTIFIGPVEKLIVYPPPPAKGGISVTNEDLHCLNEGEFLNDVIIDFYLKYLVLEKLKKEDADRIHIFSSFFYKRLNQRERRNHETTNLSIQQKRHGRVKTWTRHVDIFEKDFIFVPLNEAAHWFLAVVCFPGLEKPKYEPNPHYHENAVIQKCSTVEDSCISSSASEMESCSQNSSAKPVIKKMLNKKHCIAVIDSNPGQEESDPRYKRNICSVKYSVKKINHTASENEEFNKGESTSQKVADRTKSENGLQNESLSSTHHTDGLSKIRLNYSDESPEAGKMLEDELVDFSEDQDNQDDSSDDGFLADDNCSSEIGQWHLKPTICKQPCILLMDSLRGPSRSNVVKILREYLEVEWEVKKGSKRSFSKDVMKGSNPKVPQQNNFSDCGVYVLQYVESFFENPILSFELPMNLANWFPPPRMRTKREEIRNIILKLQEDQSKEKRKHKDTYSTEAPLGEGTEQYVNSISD
# Caspase-3 = target: T4, Caspase-3 (Homo sapiens, UniProt P42574); assay type: functional;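 further: Dose-response selectivity test against caspase-3 for candidate inhibitors of sentrin-specific proteases (SENPs)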
# T4 sequence (P42574 whole entry): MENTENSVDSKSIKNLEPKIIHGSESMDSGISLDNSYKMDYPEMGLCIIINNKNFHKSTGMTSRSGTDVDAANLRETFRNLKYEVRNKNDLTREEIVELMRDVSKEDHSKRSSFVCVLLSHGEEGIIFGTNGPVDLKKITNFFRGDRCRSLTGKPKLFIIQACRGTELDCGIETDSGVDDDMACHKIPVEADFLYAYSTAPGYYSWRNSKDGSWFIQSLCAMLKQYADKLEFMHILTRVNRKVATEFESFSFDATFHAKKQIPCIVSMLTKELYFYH
# [4] = target: Glucose-6-phosphate 1-dehydrogenase (Homo sapiens, UniProt P11413); test: inhibition of Homo sapiens G6PD, dose series – biochemical, fluorescence, selectivity assay for P. falciparum G6PD inhibitor project, dose response (AID 504792); assay type: functional
# Beta Lactamase = Beta Lactamase (Pseudomonas aeruginosa, UniProt Q932Y6); test: BLA reporter interference, concentration series – BLA reporter cells, FRET fluorescence, artefact control for TLR9-MyD88 binding inhibitor project, dose response (AID 588341); assay type: cell-based;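 further: cell based assay in CHO-K1 cells stably expressing beta-lactamase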
# [5] = target: Heat shock protein HSP 90-alpha (Homo sapiens, UniProt P07900); assay type: functional, organism-based
# CHO = CHO cell viability loss, potency – luminescence, cytotoxicity control for TLR9-MyD88 binding inhibitor project, dose response (AID 588339); assay type: functional, cell-based, hamster; conditions: Cricetulus griseus;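 further: CHO cells stably coexpressing TLR9 and MyD88 fusions from primary screen; compound exposure lasted 48 hours before viability readout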
# SN12K1 = test: cells; assay type: functional; conditions: Homo sapiens
# P388 = test: cells; assay type: functional; conditions: Mus musculus
# P388/ADR = test: cells; assay type: functional; conditions: Mus musculus
# [6] = reduction of Shn3 3'UTR-driven luciferase in osteoblasts – cell-based, Clone20 osteoblasts, firefly luciferase, cherry-picked, dose response (AID 624132); assay type: functional;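 further: firefly luciferase luminescence from reporter carrying the Shn3 3'UTR in osteoblasts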
# BJ [7] = test: cells; assay type: functional, cell-based; conditions: Homo sapiens
# [8] = non-specific 3'UTR reporter inhibition in Clone20-Shn3RL – cell-based, Renilla luciferase, cherry-picked, counter-screen for Shn3 inhibitor project, dose response (AID 624133); assay type: functional
# BJ [9] = test: growth inhibition of engineered Ras-driven BJ cells – cell-based, alamar blue fluorescence, cherrypicked samples, dose response (AID 2631); assay type: functional; conditions: Homo sapiens;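 further: confirmatory dose-response assay in RAS-dependent BJ fibroblasts engineered with TERT, LT and ST, with cytotoxicity read by fluorescence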
# BJ [10] = test: BJ-TERT-LT-ST fibroblast viability loss – cell-based, RAS-independent, luminescence, dose response (AID 1935); assay type: functional; conditions: Homo sapiens;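 further: BJ fibroblasts immortalized with TERT plus LT and ST oncogenes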
# [11] = loss of viability in HepG2 cells – cell-based, CellTiter-Glo, cherry-picked, cytotoxicity control for Shn3 inhibitor project, dose response (AID 624134); assay type: functional
# INS1 = test: INS-1E survival protection against cytokine death – cell-based, luminescence, retest, dose response (AID 449756); assay type: functional; conditions: Rattus norvegicus;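 further: cell death triggered by IL-1 beta plus TNF-alpha plus IFN-gamma mixture; protective hits raise ATP signal compared with cytokine alone wells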
# BJ [12] = test: BJ-TERT fibroblast viability loss – cell-based, RAS-independent, luminescence, dose response (AID 1933); assay type: functional; conditions: Homo sapiens
# [13] = DRD fibroblast viability loss – cell-based, non-viral oncogenic, luminescence, dose response (AID 1934); assay type: functional; conditions: Homo sapiens
# [14] = tested on: Streptococcus sp. 'group A'; test: Streptococcus pyogenes SK(-)GAS viability under kanamycin – luminescence, BacTiterGlo, confirmation, counter-screen for streptokinase expression inhibitor project, dose response (AID 1900); assay type: functional, organism-based
# Streptokinase A = target: T5, Streptokinase A (Streptococcus pyogenes serotype M1, UniProt P10520); test: viability-normalized secreted streptokinase activity reduction – plasminogen activation absorbance, OD405, dose response (AID 1914); assay type: functional, Streptococcus pyogenes M1 GAS;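 further: secreted streptokinase activity via plasminogen activation per viability signal from cell pellet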
# T5 sequence (P10520 whole entry): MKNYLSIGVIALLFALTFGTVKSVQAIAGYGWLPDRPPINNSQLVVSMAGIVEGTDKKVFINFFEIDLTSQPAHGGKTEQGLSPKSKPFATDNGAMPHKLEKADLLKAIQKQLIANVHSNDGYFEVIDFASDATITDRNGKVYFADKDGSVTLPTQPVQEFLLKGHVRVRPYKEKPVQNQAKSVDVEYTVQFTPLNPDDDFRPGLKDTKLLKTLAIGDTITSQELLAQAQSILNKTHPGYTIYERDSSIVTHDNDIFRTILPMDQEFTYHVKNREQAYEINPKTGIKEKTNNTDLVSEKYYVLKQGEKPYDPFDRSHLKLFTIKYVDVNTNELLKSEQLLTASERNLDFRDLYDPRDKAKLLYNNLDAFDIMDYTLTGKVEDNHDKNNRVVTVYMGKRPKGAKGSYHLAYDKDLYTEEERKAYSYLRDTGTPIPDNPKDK
# Streptococcus = test: GAS UMAA2166 growth inhibition – luminescence, BacTiterGlo, counter-screen for streptokinase expression inhibitor project, dose response (AID 1915); assay type: functional, organism-based;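 further: potency for reduction of bacterial viability or growth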
# Protein skinhead-1 = target: T6, Protein skinhead-1 (Caenorhabditis elegans, UniProt P34707); assay type: functional
# T6 sequence (P34707 whole entry): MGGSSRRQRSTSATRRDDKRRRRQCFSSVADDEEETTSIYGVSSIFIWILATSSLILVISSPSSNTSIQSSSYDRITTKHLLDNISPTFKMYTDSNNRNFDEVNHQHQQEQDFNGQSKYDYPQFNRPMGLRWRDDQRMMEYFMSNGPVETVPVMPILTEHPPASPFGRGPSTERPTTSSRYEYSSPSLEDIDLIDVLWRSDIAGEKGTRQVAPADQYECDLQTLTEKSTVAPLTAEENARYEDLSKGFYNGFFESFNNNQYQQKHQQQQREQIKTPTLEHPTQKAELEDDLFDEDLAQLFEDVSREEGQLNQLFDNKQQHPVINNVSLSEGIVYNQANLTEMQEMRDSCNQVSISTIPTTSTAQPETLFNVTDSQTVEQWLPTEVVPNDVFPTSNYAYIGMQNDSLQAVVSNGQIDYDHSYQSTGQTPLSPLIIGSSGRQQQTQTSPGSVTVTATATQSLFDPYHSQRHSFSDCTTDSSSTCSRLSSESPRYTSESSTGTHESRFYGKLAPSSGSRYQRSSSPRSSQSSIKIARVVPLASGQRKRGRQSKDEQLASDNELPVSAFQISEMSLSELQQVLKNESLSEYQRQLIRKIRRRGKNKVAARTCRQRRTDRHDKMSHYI
# Glucose-6-phosphate 1-dehydrogenase, sequence (P11413 whole entry): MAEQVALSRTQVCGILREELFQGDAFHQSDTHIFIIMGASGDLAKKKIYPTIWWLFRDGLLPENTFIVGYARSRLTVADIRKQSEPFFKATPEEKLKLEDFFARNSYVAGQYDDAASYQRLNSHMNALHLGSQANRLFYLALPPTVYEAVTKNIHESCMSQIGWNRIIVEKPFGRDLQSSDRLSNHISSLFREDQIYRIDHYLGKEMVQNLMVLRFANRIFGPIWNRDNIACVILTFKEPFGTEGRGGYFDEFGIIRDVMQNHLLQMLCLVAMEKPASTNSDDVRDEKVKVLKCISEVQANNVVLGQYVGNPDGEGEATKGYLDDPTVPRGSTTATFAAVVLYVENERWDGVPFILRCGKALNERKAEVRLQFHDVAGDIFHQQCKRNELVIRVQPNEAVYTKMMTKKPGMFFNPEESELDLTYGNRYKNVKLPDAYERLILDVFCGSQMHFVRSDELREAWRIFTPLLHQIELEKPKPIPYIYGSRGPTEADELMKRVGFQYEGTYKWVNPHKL
# Beta Lactamase, sequence (Q932Y6 whole entry): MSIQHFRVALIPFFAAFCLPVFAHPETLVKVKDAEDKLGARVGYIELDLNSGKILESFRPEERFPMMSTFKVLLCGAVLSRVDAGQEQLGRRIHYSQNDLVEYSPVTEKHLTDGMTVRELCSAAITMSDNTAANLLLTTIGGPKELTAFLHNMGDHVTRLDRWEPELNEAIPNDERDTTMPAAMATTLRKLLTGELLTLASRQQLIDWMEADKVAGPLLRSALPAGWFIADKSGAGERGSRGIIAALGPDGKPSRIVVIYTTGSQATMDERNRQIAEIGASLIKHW
Compound,IC50 [1],IC50 [2],IC50 [3],IC50 (Caspase-3),GI50 (SN12K1),GI50 (P388),GI50 (P388/ADR),other results
CCOC(=O)c1cc2ccc3ccccc3c2s1,> 100 µM (inactive),10.5 µM (active),70.9 µM (active),49.5 µM (active),,,,
CC(=O)Nc1ccc2c(c1)Cc1cc(N3C(=O)C=CC3=O)ccc1-2,,,,,,,,IC50 [4]: > 80 µM (inactive); IC50 (Beta Lactamase): 7.23 µM (active); AC50 [5]: 0.68 µM (active); IC50 (CHO): 1.86 µM (active)
N/C(S)=N/N=C/c1ncccc1O,,,,,0.382 µM (active),0.347 µM (active),0.366 µM (active),
N/C(=N\O)N/N=C/c1ncccc1O,,,,,3.52 µM (inactive),1.67 µM (inactive),1.52 µM (inactive),
Cc1cccc(NC(=O)/C=C/c2ccc([N+](=O)[O-])s2)c1,,,,,,,,AC50 [6]: 3.29 µM (active); EC50 (BJ [7]): 15.7 µM (active); AC50 [8]: 13.5 µM (active); EC50 (BJ [9]): 0.531 µM (active); EC50 (BJ [10]): 4.67 µM (inconclusive); AC50 [11]: 9.74 µM (active); AC50 (INS1): 7.91 µM (active); EC50 (BJ [12]): 4.95 µM (inconclusive); EC50 [13]: 4.68 µM (active)
Cc1ccc(Nc2ncnc3c2oc2ccccc23)cc1,> 100 µM (inactive),5.1 µM (active),> 100 µM (inactive),28 µM (active),,,,
CCOC(=O)CCc1c(C)c2c(O)cc(O)cc2oc1=O,,,,,> 94.2 µM (inactive),3.77 µM (inactive),14 µM (inactive),
O=C(NN1C(=O)CSC1c1ccc(C(F)(F)F)cc1)c1ccncc1 (configuration not stated),,,,,> 100 µM (inactive),> 100 µM (inactive),> 67.6 µM (inactive),
Nc1c(S(=O)(=O)O)cc(S(=O)(=O)O)c2ccc(/N=N/c3ccc(/C=C/c4ccc(/N=N/c5ccc6c(S(=O)(=O)O)cc(S(=O)(=O)O)c(N)c6c5O)cc4S(=O)(=O)O)c(S(=O)(=O)O)c3)c(O)c12,,,,,> 100 µM (inactive),73.5 µM (inactive),,
Cc1cccc(NCc2nc3ccccc3n2Cc2ccccc2)c1,54.9 µM (active),12.7 µM (active),37.7 µM (active),44.6 µM (active),,,,EC50 [14]: 8.81 µM (active); EC50 (Streptokinase A): > 150 µM (not active); EC50 (Streptococcus): > 150 µM (not active)
CCCOC(=O)c1ccc(NC(=O)/C=C/c2cccs2)cc1,70.2 µM (active),12.9 µM (active),69.7 µM (active),62.9 µM (active),,,,IC50 (Protein skinhead-1): > 100 µM (inactive)
